Source: patent US12263144B2, “Methods of treating IgA nephropathy with thiol-containing molecules” (Accubit LLC—Biotechnology, priority 2020, dated 2025)

What was measured:
Assay type in all cases: biochemical
[1] = test system: natural IgA1 assembly (two heavy chains and two light chains connected via disulfide bonds); assay: Ex vivo study: integrity of natural IgA assembly under thiol/reducing agents
Experimental: (§1) The overall complex size of IgA aggregates was determined either by size-exclusion chromatography (SEC: Superdex 200 Increase 10/300 by GL Cytiva), or by SDS-PAGE. For evaluating the involvement of intermolecular disulfide connectivity in IgA complexes, IgA samples were treated with either reducing agents, such as DTT, TCEP or reduced glutathione (Sigma), or interventional drugs, such as cysteamine (Sigma), WR-1065 (Sigma) and N-Acetyl-L-cysteine (VWR Chemicals) in phosphate-buffered saline (PBS) pH7.4. Before running on SEC, samples were treated with the drugs at indicated concentrations at 37° C. for one hour.
Proteins in sample buffer (Bio-Rad Laboratories, Hercules, CA, USA) with or without TCEP (for reducing or nonreducing condition, respectively) were resolved by 4-12% SDS-PAGE (Bio-Rad Laboratories). IgA bands were subsequently visualized either by staining with GelCode Blue (Thermo Fisher Scientific), or by Western blotting on PVDF membrane. For Western blotting, 5% non-fat milk was used in blocking for one hour at room temperature. The membrane was then incubated with mouse anti-Histag antibody (Thermo Scientific), or HRP-conjugated goat anti-rat IgA α-chain antibody (Cat. ab97185, Abcam, UK), or goat anti-human IgA HRP antibody (Cat: 2050-05, SouthernBiotech) for detecting rat or human IgA (Fc), respectively. The membrane was developed using the Clarity™ ECL substrate (Bio-Rad Laboratories, CA, USA).

Rat rIgA (poly-rIgA) = assay: SEC determination of poly- and mono-rIgA content of rat rIgA after treatment; conditions: 1 h 37° C., PBS, SEC AUC
Experimental: as §1
In the meantime, the SEC column was also equilibrated with PBS supplemented with the reducing agent at the same concentration. For running SEC, 100 μL of the recombinant IgA (concentration varies between 1 mg/mL and 8 mg/mL) or purified native human IgA1 (˜1 mg/mL) was loaded to the column and UV absorption was recorded following elution. […] The ratios between poly-rIgA and mono-rIgA were calculated as between the corresponding areas under the curve (AUC), and the treatment effect of the thiol agents was judged by the reduction of the poly-rIgA level with a compensatory increase of the mono-rIgA content.
To further investigate specific cysteine residue(s) involved in IgA complexes, expression vectors were constructed to produce recombinant IgA (rIgA) Fc segments of rat and human sequences (FIG. 2, part A) as discussed above. Rat IgA analogs were expressed in BL21 DE3 strain of E. coil and recombinant protein were purified from the bacterial lysate using Histrap HP columns (GE Healthcare) by running fast protein liquid chromatography (FPLC). Human recombinant IgA mimetics were produced from human embryo kidney (HEK293) cells by transfection of the expressing plasmids. Recombinant IgA proteins expressed by the cells were secreted into the culture medium, and they were subsequently purified by Histrap HP columns by FPLC using standard procedures. […] Rat rIgA was produced from bacterial expression as discussed above.
Cysteamine (Cy), an aminothiol that can react with cysteine, is both a natural metabolite produced in mammalian cells and a clinical drug used for treatment of cystinosis. In cystinosis, cysteamine reduces the disulfide bond in cystine, which is the oxidated dimer of amino acid cysteine (FIG. 4, part A). In the context of cysteine residues in proteins, endogenous cysteamine as well as the therapeutic drug forms mixed disulfides with susceptible cysteine sulfhydryl groups in a process called cysteamination (FIG. 4, part B). It was sought to determine whether cysteamine could reduce Cys471-disulfides to disaggregate poly-IgA. Rat rIgA (SEQ ID NO.4) was treated with various concentrations of cysteamine for one hour at 37° C. in phosphate buffered saline at neutral pH and the protein complexes were analyzed by SEC. The SEC column (model: Superdex 200 Increase 10/300 GL by Cytiva) was preequilibrated with the same buffer supplemented with the same concentration of cysteamine.

Human rIgA1 (poly-rIgA) = biological target: T1, Human rIgA1 (poly-rIgA) (Homo sapiens, UniProt P01876); assay: SEC of human rIgA (HEK293-produced) after treatment; conditions: human rIgA from HEK293 cells, FIG. 5 B
T1 construct: IL-2 signal peptide (N, cleaved yes); 6xHis (N); made in house; host or cells: HEK293
T1 sequence (P01876 121-353 isoform P01876-1): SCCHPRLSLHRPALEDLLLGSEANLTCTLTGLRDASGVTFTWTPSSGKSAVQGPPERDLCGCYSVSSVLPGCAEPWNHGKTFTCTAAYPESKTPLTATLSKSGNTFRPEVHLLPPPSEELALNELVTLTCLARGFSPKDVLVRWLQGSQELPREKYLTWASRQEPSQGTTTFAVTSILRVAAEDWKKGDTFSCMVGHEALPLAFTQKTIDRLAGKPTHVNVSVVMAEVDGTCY
Experimental: as §1
In the meantime, the SEC column was also equilibrated with PBS supplemented with the reducing agent at the same concentration. For running SEC, 100 μL of the recombinant IgA (concentration varies between 1 mg/mL and 8 mg/mL) or purified native human IgA1 (˜1 mg/mL) was loaded to the column and UV absorption was recorded following elution. Recombinant IgA typically formed two elution peaks: a minor peak of ˜800 kDa poly-rIgA followed by a major peak of ˜170 kDa of monomeric rIgA. The ratios between poly-rIgA and mono-rIgA were calculated as between the corresponding areas under the curve (AUC), and the treatment effect of the thiol agents was judged by the reduction of the poly-rIgA level with a compensatory increase of the mono-rIgA content. […]

SMILES: NCCS [cysteamine]
- disruption of natural IgA assembly / normal pairing of IgA heavy chains [1]: did not cause unwanted disruption of natural IgA1 assembly
- Mono-IgA (%) (Rat rIgA (poly-rIgA); cysteamine 0.1 mM): 81.85%
- Poly-IgA (%) (Rat rIgA (poly-rIgA); cysteamine 0.1 mM): 18.15%
- Mono-IgA (%) (Rat rIgA (poly-rIgA); cysteamine 1 mM): 89.57%
- Poly-IgA (%) (Rat rIgA (poly-rIgA); cysteamine 1 mM): 10.43%
- Mono-IgA (%) (Rat rIgA (poly-rIgA); cysteamine 5 mM): 93.59%
- Poly-IgA (%) (Rat rIgA (poly-rIgA); cysteamine 5 mM): 6.414%
- Mono-IgA (%) (Rat rIgA (poly-rIgA); cysteamine 10 mM): 93.24%
- Poly-IgA (%) (Rat rIgA (poly-rIgA); cysteamine 10 mM): 6.759%
- poly-rIgA level (SEC) (Human rIgA1 (poly-rIgA)): reduction of poly-rIgA levels
